# What was measured:
# [1] = system: Nucleic Acid; assay: Binding affinity to Escherichia coli pUC19 DNA assessed as form 2 DNA level at 0.130 mM after 11.30 hrs by agarose gel electrophoresis; type: nucleic-acid assay
# [2] = system: Nucleic Acid; assay: Binding affinity to Escherichia coli pUC19 DNA assessed as form 2 DNA level at 0.175 mM by agarose gel electrophoresis; type: nucleic-acid assay
# [3] = system: Nucleic Acid; assay: Binding affinity to Escherichia coli pUC19 DNA assessed as form 2 DNA level at 0.175 mM after 13.07 hrs by agarose gel electrophoresis; type: nucleic-acid assay
# [4] = system: Nucleic Acid; assay: Binding affinity to Escherichia coli pUC19 DNA assessed as form 1 DNA level at 0.175 mM after 27.33 hrs by agarose gel electrophoresis; type: nucleic-acid assay
# [5] = system: Nucleic Acid; assay: Binding affinity to Escherichia coli pUC19 DNA assessed as form 1 DNA level at 0.175 mM after 13.07 hrs by agarose gel electrophoresis; type: nucleic-acid assay
# [6] = system: Nucleic Acid; assay: Binding affinity to Escherichia coli pUC19 DNA assessed as form 1 DNA level at 0.175 mM after 29.33 hrs by agarose gel electrophoresis; type: nucleic-acid assay
# [7] = system: Nucleic Acid; assay: Binding affinity to Escherichia coli pUC19 DNA assessed as form 2 DNA level at 0.262 mM by agarose gel electrophoresis; type: nucleic-acid assay
# [8] = system: Nucleic Acid; assay: Binding affinity to Escherichia coli pUC19 DNA assessed as form 2 DNA level at 0.175 mM after 29.33 hrs by agarose gel electrophoresis; type: nucleic-acid assay
# [9] = system: Nucleic Acid; assay: Binding affinity to Escherichia coli pUC19 DNA assessed as form 2 DNA level at 0.262 mM after 24.08 hrs by agarose gel electrophoresis; type: nucleic-acid assay
# [10] = system: Nucleic Acid; assay: Binding affinity to Escherichia coli pUC19 DNA assessed as form 1 DNA level at 0.262 mM after 27.07 hrs by agarose gel electrophoresis; type: nucleic-acid assay
# [11] = system: Nucleic Acid; assay: Binding affinity to Escherichia coli pUC19 DNA assessed as form 2 DNA level at 0.262 mM after 27.07 hrs by agarose gel electrophoresis; type: nucleic-acid assay
# [12] = system: Nucleic Acid; assay: Binding affinity to Escherichia coli pUC19 DNA assessed as form 1 DNA level at 0.349 mM after 11.33 hrs by agarose gel electrophoresis; type: nucleic-acid assay
# [13] = system: Nucleic Acid; assay: Binding affinity to Escherichia coli pUC19 DNA assessed as form 2 DNA level at 0.349 mM after 11.33 hrs by agarose gel electrophoresis; type: nucleic-acid assay
# [14] = system: Nucleic Acid; assay: Binding affinity to Escherichia coli pUC19 DNA assessed as form 1 DNA level at 0.320 mM after 29.33 hrs by agarose gel electrophoresis; type: nucleic-acid assay
# [15] = system: Nucleic Acid; assay: Binding affinity to Escherichia coli pUC19 DNA assessed as form 1 DNA level at 0.349 mM after 28.18 hrs by agarose gel electrophoresis; type: nucleic-acid assay
# [16] = system: HeLa; assay: Growth inhibition of human HeLa cells at 100 uM after 72 hrs by MTT assay; type: functional; set-up: scale not given: the % may be the effect or the level left
# [17] = system: Nucleic Acid; assay: Binding affinity to Escherichia coli pUC19 DNA assessed as form 1 DNA level at 0.698 mM after 3.72 hrs by agarose gel electrophoresis; type: nucleic-acid assay
# [18] = system: Nucleic Acid; assay: Binding affinity to Escherichia coli pUC19 DNA assessed as form 2 DNA level at 0.698 mM after 8.45 hrs by agarose gel electrophoresis; type: nucleic-acid assay
# [19] = system: Nucleic Acid; assay: Binding affinity to Escherichia coli pUC19 DNA assessed as form 1 DNA level at 0.698 mM after 23.80 hrs by agarose gel electrophoresis; type: nucleic-acid assay
# [20] = system: Nucleic Acid; assay: Binding affinity to Escherichia coli pUC19 DNA assessed as form 2 DNA level at 0.463 mM after 4.95 hrs by agarose gel electrophoresis; type: nucleic-acid assay
# [21] = system: Nucleic Acid; assay: Binding affinity to Escherichia coli pUC19 DNA assessed as form 1 DNA level at 0.463 mM after 9.07 hrs by agarose gel electrophoresis; type: nucleic-acid assay
# [22] = system: Nucleic Acid; assay: Binding affinity to Escherichia coli pUC19 DNA assessed as form 2 DNA level at 0.463 mM after 9.07 hrs by agarose gel electrophoresis; type: nucleic-acid assay
# [23] = system: Nucleic Acid; assay: Binding affinity to Escherichia coli pUC19 DNA assessed as form 1 DNA level at 0.463 mM after 13.07 hrs by agarose gel electrophoresis; type: nucleic-acid assay
# [24] = system: Nucleic Acid; assay: Binding affinity to Escherichia coli pUC19 DNA assessed as form 2 DNA level at 0.463 mM after 13.07 hrs by agarose gel electrophoresis; type: nucleic-acid assay
# [25] = system: Nucleic Acid; assay: Binding affinity to Escherichia coli pUC19 DNA assessed as form 2 DNA level at 0.463 mM after 23.12 hrs by agarose gel electrophoresis; type: nucleic-acid assay
smiles,measurement,setting,value
Cl.Cl.NNC1=NCC(O)CN1 (stereo not given),Activity,[1],21.8%
same,Activity,[2],2.93%
same,Activity,[3],9.19%
same,Activity,[4],76%
same,Activity,[5],90.8%
same,Activity,[6],76.3%
same,Activity,[7],2.81%
same,Activity,[8],23.7%
same,Activity,[9],10.5%
same,Activity,[10],84.7%
same,Activity,[11],15.3%
same,Activity,[12],90.9%
same,Activity,[13],9.09%
same,Activity,[14],59%
same,Activity,[15],65.6%
same,Activity,[16],0%
same,Activity,[17],94.9%
same,Activity,[18],15.2%
same,Activity,[19],55%
same,Activity,[20],7.36%
same,Activity,[21],83.3%
same,Activity,[22],16.6%
same,Activity,[23],77.5%
same,Activity,[24],22.5%
same,Activity,[25],38%

# Source: ChEMBL document CHEMBL1154064, “Synthesis and DNA cleavage activity of 2-hydrazinyl-1,4,5,6-tetrahydropyrimidine containing hydroxy group” (2009)
